Assay results taken from patent US20190167725A1, “COMPOSITION AND METHOD FOR IMPROVING EFFICACY OF STEM CELLS” (University-Industry Cooperation Group of Kyung Hee …, priority 2016, published 2019).

What was measured:
[1] = test system: hematopoietic progenitor cells (Lin-/Sca1+/c-Kit+, LSK); conditions: sodium acetate 4 nmol/kg subcutaneous, blood collected after 10 minutes, vs normal control group
Procedure: Populations of circulating hematopoietic progenitor cells (HPCs), lineage negative, Sca-1 positive, and c-Kit positive (Lin^−/Sca1^+/c-Kit^+, LSK) cells were analyzed by a flow cytometry analyzer.
Monocytes were separated by Ficoll centrifugation. Then, hematopoietic progenitor cells were examined using anti-mouse CD4-FITC (Biolegend, San Diego, Calif.), anti-mouse CD49b-FITC (Biolegend), anti-mouse CD11b-FITC (Biolegend), anti-mouse B220-FITC (Biolegend), anti-mouse Gr-1-FITC (Biolegend), anti-mouse CD8-FITC (Biolegend), anti-mouse Ly-6A/E (Sca-1)-PE (Biolegend), and anti-mouse CD117 (c-Kit)-APC (Biolegend).

VEGF = conditions: 10 mM, 48 hours, ST2 cells, vs untreated control (CON)
Procedure: (§1) ST2 cells (3.8×10^5 cells) were added to a 6-well plate under the condition of normal growth medium and cultured overnight. The medium was replaced with low-glucose DMEM medium without FBS and the cells were cultured for 18 hours. Then, the cells were treated with 10 mM sodium acetate (C2) for 48 hours or not treated (CON).
(§2) A cell lysate was obtained from the sample, and total RNA was isolated using TRIzol. The cDNA was synthesized from the total RNA, and the expression levels of mRNAs of VEGF and IL-10 in cells were measured by real-time PCR using primers for VEGF and IL-10 and SYBR green PCR Master Mix (fluorescent material).

IL-10 = conditions: 10 mM, 48 hours, ST2 cells, vs untreated control (CON)
Procedure: as §1, §2

[2] = test system: human bone marrow-derived MSCs (hMSCs); conditions: 10 mM, two subcultures, 14 days culture, colonies 3 mm or greater
Procedure: Then, the cells were added at a concentration of 5×10^2 cells/well (10 cm dish) to low-glucose DMEM (GE Healthcare Life Sciences) containing 10% FBS, 1% penicillin and streptomycin (Invitrogen), and 1% L-glutamine in a plate, and the plate was incubated under conditions of 37° C. and 5% CO2 for 14 days. The plate was then fixed with 100% methanol, stained with a 1% crystal violet staining solution (Sigma-Aldrich), and the number of colonies was counted under a stereomicroscope. In particular, cell populations of human bone marrow-derived MSCs with a diameter of 3 mm or greater were considered as colonies.

[3] = test system: ST2 cells (mouse bone marrow-derived MSCs); conditions: 0 mM to 10 mM in lower chamber, 12 hours
Procedure: The cells were maintained in RPMI1640 medium (Invitrogen) containing 10% FBS, 1% penicillin, and streptomycin (Invitrogen). The cells were cultured to a confluence of 80%, recovered with 0.25% trypsin/EDTA (Invitrogen), and subcultured in a ratio of 1:3 to 1:4. The cells which underwent 5 to 8 subcultures were used in the experiment. The cells were maintained in a 37° C. incubator containing 5% CO2.
Millicell culture plate inserts with a pore size of 8 μm (EMD Millipore) were coated with type I collagen (0.5 μg/mL). The ST2 cells (2.5×10^4 cells) were suspended in normal growth medium and added into an upper chamber. After culturing the cells for 5 to 6 hours, the medium was replaced with DMEM medium containing 2% FBS and 1% penicillin and streptomycin.
After culturing for an additional 12 hours, each insert was fixed with 4% formaldehyde in the presence of PBS at room temperature for 10 minutes. The ST2 cells were stained with a hematoxylin solution for 30 minutes, and the cells remaining on the upper chamber membrane were removed using cotton swabs. The lower chamber membrane was confirmed using the Nikon ECLIPSE TS 100 microscope. The number of cells in each cell image was counted using Adobe Photoshop CS6.

[4] = test system: mouse bone marrow-derived MSCs; conditions: 200 mM in drinking water for 7 days, vs drinking water without sodium acetate
Procedure: Each C57BL/6 mouse was fed drinking water with or without sodium acetate (200 mM) for 7 days, and femurs were collected from each mouse. The collected femurs were crushed using a mortar, treated with 0.2% type I collagenase (Worthington), and thereby the bone marrow cells attached to the bones were collected.

[5] = test system: ST2 cells (mouse bone marrow-derived MSCs); conditions: 10 mM, 36 hours treatment, 10 days culture, colonies 1 mm or greater
Procedure: Then, the cells were added to a plate at a concentration of 5.7×10^4 cells/well and cultured under conditions of 37° C. and 5% CO2 for 10 days. The plate was then stained with a 1% crystal violet staining solution (Sigma-Aldrich) and the number of colonies was counted under a stereomicroscope. In particular, cell populations with a diameter of 1 mm or greater were considered as colonies.

[6] = test system: ST2 cells (mouse bone marrow-derived MSCs); conditions: 10 mM, 12 hours, growth factor reduced Matrigel
Procedure: Then, the upper part of each insert was coated with 50 μL of growth factor reduced Matrigel (BD Bioscience). […] The lower chamber membrane was confirmed using a Nikon ECLIPSE TS 100 microscope.

[7] = test system: human bone marrow-derived MSCs (hMSCs); conditions: concentration series, serum-free DMEM
From the text: The human bone marrow-derived MSCs (hMSCs) were obtained from Lonza (Basel, Switzerland) and cultured in MSCGM medium (Lonza). Cells which underwent 3 to 6 subcultures were used in the experiment.

| SMILES | hematopoietic progenitor cells (LSK) in the peripheral blood [1] | increase of expression of VEGF mRNA (VEGF) | increase of expression of IL-10 mRNA (IL-10) | enhancement of colony-forming ability (CFU-F) of hMSCs [2] | mobility of ST2 cells (number of migrated cells) [3] | increase in frequency of cell population of mouse bone marrow-derived MSCs (CFU-F) [4] | increase in size of cell population of mouse bone marrow-derived MSCs (CFU-F) [4] | colony-forming ability (CFU-F) of mouse bone marrow-derived MSCs [5] | invasion (number of cells through Matrigel) [6] | mobility of human bone marrow-derived MSCs (hMSCs) [7] |
| --- | --- | --- | --- | --- | --- | --- | --- | --- | --- | --- |
| CC(=O)[O-].[Na+] [sodium acetate] | enhancement of mobility from the bone marrow to the peripheral blood | about 2.5 fold | about 2.4 fold | about 5 fold | increase in a manner dependent on the concentration | about 2 fold | about 2 fold | significantly increased | significantly increased | increased in a manner dependent on the concentration |
| CCC(=O)[O-].[Na+] [sodium propionate] | – | – | – | – | increase in a manner dependent on the concentrations | – | – | enhancement of a CFU-F-forming ability | – | – |
| CCCC(=O)[O-].[Na+] [sodium butyrate] | – | – | – | – | increase in a manner dependent on the concentrations | – | – | – | – | – |
